For the assay, the target named is Complement factor D (Homo sapiens, UniProt P00746). In words: Inhibition of recombinant human factor D expressed in Escherichia coli using Z-Lys-thiobenzyl and 2,4-dinitrobenzenesulfonyl-fluoresceine as substrate preincubated for 1 hr followed by substrate addition by spectrofluorimetric analysis.
Sequence of Complement factor D (P00746 whole entry): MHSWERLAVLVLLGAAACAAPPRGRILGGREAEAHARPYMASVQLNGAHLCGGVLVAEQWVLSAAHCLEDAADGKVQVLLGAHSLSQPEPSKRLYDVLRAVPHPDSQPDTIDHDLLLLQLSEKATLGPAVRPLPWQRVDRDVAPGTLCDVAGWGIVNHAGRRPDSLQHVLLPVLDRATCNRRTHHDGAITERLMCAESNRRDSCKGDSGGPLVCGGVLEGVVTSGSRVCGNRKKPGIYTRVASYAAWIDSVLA

Take `NC(=O)c1nn(CC(=O)N2[C@@H]3C[C@@H]3C[C@H]2C(=O)Nc2cccc(Br)n2)c2cnc(CF)cc12`: the IC50 was 2 nM.

For the origin of these results see ChEMBL document CHEMBL3108695, “Inhibitors of factor d may provide a treatment for age-related macular degeneration” (ACS Med Chem Lett, 2014).
